Results from US12161650B2, “Pharmaceutical compositions comprising a ryanodine receptor modulator and uses thereof” (priority 2021, dated 2024).
Read-outs that look alike come from different tables or passages of the source.

What was measured:
Assay type in all cases: in vivo, human (healthy male volunteers)
[1] = Phase 1 clinical trial, Part II, muscle biopsy: concentration in quadriceps muscle; details: for Kp (total muscle concentration divided by plasma concentration) / Kp: muscle Day 13 / plasma Day 14 at 3 hours post dose, geom. mean (geom. % CV); for Kp: quadriceps muscle / plasma, read-out: Kpu (unbound muscle concentration divided by plasma concentration)
Method: For Study part II (for all groups), Concentrations of Compound I were determined in muscle by performing muscle biopsy on quadriceps muscle on day 13, at least 3 hours after morning dose. Plasma and muscle samples were analyzed by LC-MS/MS method. Muscle biopsy was performed to assess the concentration of Compound I in quadriceps muscle. The biopsy was performed on Day 13 at 3 hours post dose at least. Table 9 summarizes the ratios of unbound respective total concentration at Day 13 at 3 hours post dose divided by the plasma concentration on Day 14 at 3 hours post dose.

[2] = Phase 1 clinical trial, Part I single ascending doses, plasma pharmacokinetics; details: for Tmax / AUC(0-t) / Cmax / AUC / half-life: male, human, plasma; for AUC(0-t) / Cmax: Day 1, geom. mean; for AUC: Day 1, zero to infinity; for AUC / half-life: geom. mean; for half-life: read-out: t1/2, z (converted)
Method: (§1) A Phase 1, randomized, double-blind, placebo-controlled clinical trial was performed to assess the safety and pharmacokinetics (PK) of Compound I after single, escalating, and repeated oral doses in health male volunteers.
(§2) 4-[(7-methoxy-2,3-dihydro-1,4-benzothiazepin-4(5H)yl)methyl]benzoic acid hemi-fumarate (Compound I) was administered in a gastro-resistant tablet according to Example 1. The formulation contained 20 mg, 40 mg, or 200 mg Compound I (based on the mass of 4-[(7-methoxy-2,3-dihydro-1,4-benzothiazepin-4(5H)yl)methyl]benzoic acid). Placebo tablet according to Example 4 was used as comparator.
[…] Forty subjects completed part I: 30 active (6 per cohort) and 10 placebo.
In Part I, blood samples were collected from each participant as follows: at pre-dose, then 0.25, 0.5, 1, 1.5, 2, 3, 4, 5, 6, 8, 10, 12, 16, 24, 36, 48, 60, 72, and 96 hours after dosing.
(§3) The area under the plasma concentration-time curve was calculated using a combined linear and logarithmic trapezoidal rule. The interpolation was linear in the constant and ascending parts of the plasma concentration-time profiles. The interpolation was logarithmic in the descending parts.
For Part I, to assess the dose effect on the PK of Compound I, the mean AUClast, and Cmax for each dose were calculated and were plotted by dose.
(§4) For each group and treatment, descriptive statistics (N, arithmetic mean, standard deviation, minimum, median, maximum, coefficient of variation, geometric mean, and geometric CV, as appropriate) were calculated for the concentrations and pharmacokinetic parameters of Compound I.
(§5) Plasma and muscle samples were analyzed by LC-MS/MS method.

[3] = Phase 1 clinical trial, safety of single and repeated oral doses
Method: as §1
The primary objective was to assess the safety of escalating single oral doses of Compound I compared with placebo in healthy male volunteers. The secondary objective was to measure plasma pharmacokinetic (PK) parameters of Compound I.
The primary objective was to assess the safety of escalating repeated oral doses of Compound I over 14 days compared with placebo in healthy male volunteers. The secondary objective was to measure plasma pharmacokinetic (PK) parameters of Compound I and to assess the concentration of Compound I in quadriceps muscle.

[4] = Phase 1 clinical trial, Part II multiple ascending doses over 14 days, plasma pharmacokinetics; details: for Cmax / Tmax / AUC(0-t) / AUC / half-life: male, human, plasma; for AUC(0-t): read-out: AUC0-24
Method: as §1, §2
In Part II, participants from groups I, J, K, and L received repeated doses of 20 mg, 60 mg, 120 mg, or 240 mg Compound I, respectively, or corresponding placebo once daily over a period of 14 days. Forty-one subjects completed Part II: 7/7/8/7 for cohorts I, J, K, L, and twelve placebo.
In Part II, blood samples were collected from each participant as follows: Day 1: 12 samples from the pre-morning dose up to 16 h (pre-dose, 0.25, 0.5, 1, 1.5, 2, 3, 4, 6, 8, 12, and 16 h), Days 2-13: 12 samples at pre-doses (i.e., morning dose); Day 14: 16 samples from the pre-morning dose up to 96 (D14 pre-dose, 0.25, 0.5, 1, 1.5, 2, 3, 4, 6, 8, 12, and 16 h and D15-18: 1 sample before theoretical morning dosing.
as §3
For Part II, the same approach was used on AUCτ (Day 14) respectively AUC24 (Day 1), and Cmax.
as §4, §5

[5] = geometric means across dose groups 20-240 mg, 14-day repeated administration

COc1ccc2c(c1)CN(Cc1ccc(C(=O)O)cc1)CCS2.O=C(O)/C=C/C(=O)O [Compound I, 4-[(7-methoxy-2,3-dihydro-1,4-benzothiazepin-4(5H)yl)methyl]benzoic acid hemifumarate]
Kp (total muscle concentration divided by plasma concentration) ([1]; 20 mg once daily): 0.0808 (65.3) (ng/g)/(ng/ml) | Kp (total muscle concentration divided by plasma concentration) ([1]; 60 mg once daily): 0.0640 (22.6) (ng/g)/(ng/ml) | Kp (total muscle concentration divided by plasma concentration) ([1]; 120 mg once daily): 0.0636 (49.9) (ng/g)/(ng/ml) | Kp (total muscle concentration divided by plasma concentration) ([1]; 240 mg once daily): 0.0440 (30.0) (ng/g)/(ng/ml) | Dose proportionality of median unbound and total concentrations in quadriceps muscle ([1]; 20-240 mg once daily): appeared dose proportional | Kp, range of geometric mean ratios across doses ([1]; dose range 20-240 mg): 0.04-0.08 (ng/g)/(ng/mL) | Kp at 3 h ([1]; male, human, quadriceps muscle (unbound) / plasma, oral, dose range 20-240 mg, read-out: Kpu, range of geometric mean ratios across doses): 0.0081 to 0.0106 | Kp ([1]; male, human, oral, 20 mg once daily): 0.0106 | Kp ([1]; male, human, oral, 60 mg once daily): 0.01 | Kp ([1]; male, human, oral, 120 mg once daily): 0.0081 | Kp ([1]; male, human, oral, 240 mg once daily): 0.0081 | Tmax ([2]; single oral administration at 20 to 400 mg, across doses, read-out: median Tmax): 3 to 4.5 h | AUC(0-t) ([2]; single oral dose 40 mg (Treatment A, n = 6)): 68.7 µg·h/mL | Cmax ([2]; single oral dose 40 mg): 3940 ng/mL | Tmax ([2]; single oral dose 40 mg, Day 1, median, read-out: tmax): 3 h | AUC ([2]; single oral dose 40 mg): 71.7 µg·h/mL | half-life ([2]; single oral dose 40 mg): 20.9 h | AUC(0-t) ([2]; single oral dose 80 mg (Treatment B, n = 6)): 153 µg·h/mL | Cmax ([2]; single oral dose 80 mg): 6880 ng/mL | Tmax ([2]; single oral dose 80 mg, Day 1, median, read-out: tmax): 3 h | AUC ([2]; single oral dose 80 mg): 163 µg·h/mL | half-life ([2]; single oral dose 80 mg): 22.7 h | AUC(0-t) ([2]; single oral dose 160 mg (Treatment C, n = 6)): 304 µg·h/mL | Cmax ([2]; single oral dose 160 mg): 15500 ng/mL | Tmax ([2]; single oral dose 160 mg, Day 1, median, read-out: tmax): 3 h | AUC ([2]; single oral dose 160 mg): 312 µg·h/mL | half-life ([2]; single oral dose 160 mg): 17.5 h | AUC(0-t) ([2]; single oral dose 240 mg (Treatment D, n = 6)): 451 µg·h/mL | Cmax ([2]; single oral dose 240 mg): 24500 ng/mL | Tmax ([2]; single oral dose 240 mg, Day 1, median, read-out: tmax): 4.5 h | AUC ([2]; single oral dose 240 mg): 464 µg·h/mL | half-life ([2]; single oral dose 240 mg): 17.7 h | AUC(0-t) ([2]; single oral dose 400 mg (Treatment E, n = 6)): 656 µg·h/mL | Cmax ([2]; single oral dose 400 mg): 35100 ng/mL | Tmax ([2]; single oral dose 400 mg, Day 1, median, read-out: tmax): 3.5 h | AUC ([2]; single oral dose 400 mg): 708 µg·h/mL | half-life ([2]; single oral dose 400 mg): 18.7 h | Tlag ([2]; single oral administration at 20 to 400 mg): less than 2 hours | Absorption ([2]; single oral administration of 20, 40, 80, 160, 240, and 400 mg, after a lag time): rapid absorption was observed | Non-linearity with the dose ([2]; single oral doses): No evidence of non-linearity with the dose was observed | Dose proportionality with regard to AUClast and Cmax ([2]; single oral doses, graphical inspections): dose proportionality | Tolerability ([3]; at the doses and dose regimens tested): well tolerated | Serious adverse events ([3]; single doses up to 400 mg and repeated doses up to 240 mg/d for 14 days): No serious adverse events were reported | Day at which steady-state was attained ([4]; 240 mg cohort): 5 days | Day at which steady-state was attained ([4]; 20, 60, and 120 mg cohorts): 4 days | Time to steady-state ([4]; daily treatment, across cohorts): 3 to 7 days | Accumulation ratio based on AUC [4, 5]: 1.4-1.8 | Accumulation ratio based on Cmax [4, 5]: 1.4-1.8 | Cmax ([4]; oral, 20 mg, 20 mg once daily, Day 1, geom. mean (geom. % CV), n = 8): 2200 ng/mL | Tmax ([4]; oral, 20 mg, 20 mg once daily, Day 1, median (range), n = 8, read-out: tmax): 2.52 h | Cmax ([4]; oral, 20 mg, 20 mg once daily, Day 14, geom. mean): 3110 ng/mL | Tmax ([4]; oral, 20 mg, 20 mg once daily, Day 14, median, read-out: tmax): 3 h | Cmax ([4]; oral, 60 mg, 60 mg once daily, Day 1, geom. mean): 6090 ng/mL | Tmax ([4]; oral, 60 mg, 60 mg once daily, Day 1, median, read-out: tmax): 3 h | Cmax ([4]; oral, 60 mg, 60 mg once daily, Day 14, geom. mean): 8840 ng/mL | Tmax ([4]; oral, 60 mg, 60 mg once daily, Day 14, median, read-out: tmax): 1.45 h | Cmax ([4]; oral, 120 mg, 120 mg once daily, Day 1, geom. mean): 11500 ng/mL | Tmax ([4]; oral, 120 mg, 120 mg once daily, Day 1, median, read-out: tmax): 3 h | Cmax ([4]; oral, 120 mg, 120 mg once daily, Day 14, geom. mean): 16300 ng/mL | Tmax ([4]; oral, 120 mg, 120 mg once daily, Day 14, median, read-out: tmax): 3.5 h | Cmax ([4]; oral, 240 mg, 240 mg once daily, Day 1, geom. mean): 23900 ng/mL | Tmax ([4]; oral, 240 mg, 240 mg once daily, Day 1, median, read-out: tmax): 3 h | Cmax ([4]; oral, 240 mg, 240 mg once daily, Day 14, geom. mean): 34900 ng/mL | Tmax ([4]; oral, 240 mg, 240 mg once daily, Day 14, median, read-out: tmax): 3 h | AUC(0-t) ([4]; oral, 20 mg once daily (Treatment I), Day 1, geom. mean, n = 7): 24.3 µg·h/mL | AUC ([4]; oral, 20 mg once daily, Day 14, geom. mean): 40.1 µg·h/mL | half-life ([4]; oral, 20 mg once daily, Day 14, geom. mean, read-out: t1/2, z (converted)): 19.3 h | AUC(0-t) ([4]; oral, 60 mg once daily (Treatment J, n = 7), Day 1, geom. mean): 69.2 µg·h/mL | AUC ([4]; oral, 60 mg once daily, Day 14, geom. mean): 115 µg·h/mL | half-life ([4]; oral, 60 mg once daily, Day 14, geom. mean, read-out: t1/2, z (converted)): 19.7 h | AUC(0-t) ([4]; oral, 120 mg once daily (Treatment K, n = 8), Day 1, geom. mean): 138 µg·h/mL | AUC ([4]; oral, 120 mg once daily, Day 14, geom. mean): 221 µg·h/mL | half-life ([4]; oral, 120 mg once daily, Day 14, geom. mean, read-out: t1/2, z (converted)): 19.3 h | AUC(0-t) ([4]; oral, 240 mg once daily (Treatment L, n = 7), Day 1, geom. mean): 270 µg·h/mL | AUC ([4]; oral, 240 mg once daily, Day 14, geom. mean): 465 µg·h/mL | half-life ([4]; oral, 240 mg once daily, Day 14, geom. mean, read-out: t1/2, z (converted)): 19.8 h | half-life ([4]; oral, based on the results of the single and repeat dose studies, read-out: Mean apparent terminal half-life (converted)): ~20 h | Tmax ([4]; po, after 14-days of repeated once daily oral administrations, across cohorts, read-out: median Tmax): 3 to 4 h | Dose proportionality regarding AUCτ resp. AUC0-24 and Cmax ([4]; repeated doses, graphical inspections): dose proportionality | Non-linearity with the time and dose ([4]; repeated oral administrations at 20, 60, 120, and 240 mg/d): No evidence of non-linearity with the time and dose was observed
